Results reported in the supplement of paper PMC10307832.

Key:
Assay in all cases: relative viability (nuclei count vs DMSO), 5 days (fraction); higher = more cells survive
[1] = compound: C[As](C)SC[C@H](NC(=O)CC[C@H](N)C(=O)O)C(=O)NCC(=O)O [Darinaparsin] + C[C@@H](Oc1cc(-c2cnn(C3CCNCC3)c2)cnc1N)c1c(Cl)ccc(F)c1Cl [Crizotinib] (partner 1 µM)
In short: (§1)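 Each reported value is a median over duplicate plates. It expresses relative viability: treated-well nuclei count divided by vehicle-well nuclei count. Lung cancer cell lines in 1536-well plates were dosed by pin tool a day after seeding, alone with one drug or with a fixed anchor-drug dose plus five library-drug doses (not always all listed) in √10 steps, and nuclei were counted after 5 days.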

QS11 + Decitabine = compound: C1CC2=C(C1)C=C(C=C2)OC3=NC(=C4C(=N3)N(C=N4)CC5=CC=C(C=C5)C6=CC=CC=C6)N[C@@H](CC7=CC=CC=C7)CO [QS11] + Nc1ncn([C@H]2C[C@H](O)[C@@H](CO)O2)c(=O)n1 [Decitabine] (partner 2 µM)
In short: as §1

AZ628 + Olaparib = compound: CC1=C(C=C(C=C1)NC(=O)C2=CC(=CC=C2)C(C)(C)C#N)NC3=CC4=C(C=C3)N=CN(C4=O)C [AZ628] + O=C(c1cc(Cc2n[nH]c(=O)c3ccccc23)ccc1F)N1CCN(C(=O)C2CC2)CC1 [Olaparib] (partner 8 µM)
In short: as §1

[2] = compound: C[As](C)SC[C@H](NC(=O)CC[C@H](N)C(=O)O)C(=O)NCC(=O)O [Darinaparsin] + C[C@]1(O)C[C@@H](c2nc(-c3ccc4ccc(-c5ccccc5)nc4c3)c3c(N)nccn32)C1 [Linsitinib] (partner 1 µM)
In short: as §1

Row | Cell Line | relative viability ([1]; first compound 0.08 µM) | relative viability ([1]; first compound 0.8 µM) | relative viability ([1]; first compound 2.53 µM) | relative viability ([1]; first compound 8 µM) | relative viability (QS11 + Decitabine; first compound 0.08 µM) | relative viability (QS11 + Decitabine; first compound 0.253 µM) | relative viability (QS11 + Decitabine; first compound 0.8 µM) | relative viability (QS11 + Decitabine; first compound 2.53 µM) | relative viability (QS11 + Decitabine; first compound 8 µM) | relative viability (AZ628 + Olaparib; first compound 0.08 µM) | relative viability (AZ628 + Olaparib; first compound 0.253 µM) | relative viability (AZ628 + Olaparib; first compound 0.8 µM) | relative viability (AZ628 + Olaparib; first compound 2.53 µM) | relative viability (AZ628 + Olaparib; first compound 8 µM) | relative viability ([2]; first compound 0.08 µM) | relative viability ([2]; first compound 0.8 µM) | relative viability ([2]; first compound 2.53 µM) | relative viability ([2]; first compound 8 µM)
1 | NCI-H23 | 0.753 | 0.428 | 0.412 | 0.515 | 0.282 | 0.305 | 0.311 | 0.292 | 0.317 | 0.316 | 0.312 | 0.331 | 0.227 | 0.216 | 0.661 | 0.635 | 0.482 | 0.685
2 | NCI-H1355 | 1.13 | 1.06 | 0.852 | 1.18 | 0.34 | 0.31 | 0.333 | 0.349 | 0.346 | 0.73 | 0.784 | 0.684 | 0.745 | 0.574 | 0.805 | 0.746 | 0.686 | 0.838
3 | NCI-H1734 | 0.892 | 0.724 | 0.686 | 0.736 | 0.538 | 0.532 | 0.478 | 0.457 | 0.51 | 0.684 | 0.584 | 0.516 | 0.6 | 0.382 | 1.23 | 0.917 | 0.674 | 0.932
4 | EPLC-272H | 1.02 | 0.529 | 0.649 | 0.89 |  | 0.382 | 0.388 | 0.385 | 0.341 | 0.492 | 0.663 | 0.603 | 0.568 | 0.452 | 1.2 | 1.31 | 0.956 | 1.17
5 | LXF-289 | 0.855 | 0.814 | 0.682 | 0.906 | 0.347 | 0.361 | 0.346 | 0.443 | 0.396 | 1.13 | 1.01 | 0.922 | 1.08 | 0.756 | 0.986 | 0.995 | 0.796 | 1.04
6 | NCI-H520 | 0.873 | 0.759 | 0.515 | 0.924 | 0.567 | 0.513 | 0.531 | 0.537 | 0.531 | 0.358 | 0.32 | 0.325 | 0.396 | 0.23 | 1.02 | 1.08 | 0.863 | 0.985
7 | H3255 | 1.14 | 0.773 | 0.789 | 0.895 | 0.578 | 0.64 |  | 0.556 | 0.674 | 0.561 | 0.557 | 0.596 | 0.611 | 0.427 | 0.995 | 0.96 | 0.86 | 1.16
8 | NCI-H460 |  | 0.91 | 0.607 | 1.56 | 0.578 | 0.477 | 0.298 | 0.503 | 0.382 | 0.543 | 0.397 | 0.342 | 0.414 | 0.371 | 0.814 | 1.04 | 0.713 | 1.22
9 | PC-14 | 1.26 | 0.797 | 0.72 | 1.01 | 0.244 | 0.196 | 0.199 | 0.22 | 0.195 | 0.376 | 0.258 | 0.243 | 0.259 | 0.16 | 1.04 | 0.94 | 0.896 | 1.09
10 | HCC-15 | 0.931 | 0.743 | 0.784 | 1.06 | 0.697 | 0.737 | 0.573 | 0.586 | 0.525 | 0.712 | 0.747 | 0.737 | 0.738 | 0.53 | 0.878 | 0.881 | 0.78 | 1.01
11 | NCI-H1437 | 1.23 | 0.865 | 0.716 | 1.32 | 0.557 | 0.649 | 0.432 | 0.585 | 0.531 | 0.584 | 0.605 | 0.767 | 0.597 | 0.54 | 1.52 | 1.14 | 0.888 | 1.29
12 | COR-L23 | 0.818 | 0.648 | 0.601 | 0.661 | 0.44 | 0.433 | 0.443 | 0.357 | 0.302 | 0.459 | 0.365 | 0.444 | 0.448 | 0.317 | 1.24 | 0.886 | 0.859 | 1.02
13 | NCI-H1975 | 1.13 | 1.12 | 0.879 | 1.42 | 0.369 | 0.358 | 0.397 | 0.376 | 0.358 | 0.613 | 0.674 | 0.616 | 0.749 | 0.392 | 1.11 | 1.01 | 0.944 | 1.26
14 | NCI-H1666 | 0.904 | 0.927 | 1.02 | 1.14 | 0.746 | 0.748 | 0.653 | 0.699 | 0.485 | 0.733 | 0.745 | 0.671 | 0.739 | 0.782 | 0.996 | 0.884 | 0.994 | 0.931
15 | A-427 | 1.01 | 0.902 | 0.777 | 1.1 | 0.523 | 0.561 |  | 0.613 | 0.674 | 0.85 | 0.73 | 0.773 | 0.691 | 0.541 | 1.2 | 1.09 | 1.13 | 1.12
16 | EKVX | 1.22 | 0.935 | 0.813 | 1.23 | 0.321 | 0.44 | 0.327 | 0.392 | 0.341 | 0.926 | 0.768 | 0.947 | 0.914 | 0.79 | 1.33 | 0.902 | 0.969 | 1.2
